Laboratory results taken from patent publication US20260166162A1, “CARBON CHAIN SUBSTANCE FOR REGULATING TRANSMEMBRANE TRANSPORT AND FLUIDITY OF CELL MEMBRANES, AND PREPARATION AND USE THEREOF” (priority 2022, published 2026).
Read-outs that look alike come from different tables or passages of the source.

Columns and labels:
IL-1β [1] = experiment: LPS inflammatory aging in C57BL/6 mice, serum IL-1β (Example II-55, Table II-35); format: in vivo, mouse; conditions: 1 mM, 200 μl/time, once a day, 30 days
IL-6 [2] = experiment: LPS inflammatory aging in C57BL/6 mice, serum IL-6 (Example II-55, Table II-36); format: in vivo, mouse; conditions: 1 mM, 200 μl/time once a day for 30 days; serum, LPS C57BL/6 mice
TNF-α [3] = experiment: LPS inflammatory aging in C57BL/6 mice, serum TNF-α (Example II-55, Table II-37); format: in vivo, mouse; conditions: 1 mM, 200 μl/time once a day for 30 days, LPS C57BL/6 mice
Escherichia coli = experiment: Bacteriostasis/sterilization test (plate count); format: cell-based; conditions: for Inhibition rate (%): 0.035 mM (Table 25)
Staphylococcus aureus = experiment: Bacteriostasis/sterilization test (plate count); format: cell-based; conditions: for Inhibition rate (%): 0.035 mM (Table 25)
[4] = system: Methicillin-resistant Staphylococcus aureus; experiment: Bacteriostasis/sterilization test (plate count); format: cell-based; conditions: for Inhibition rate (%): 0.035 mM (Table 25)
Streptococcus pneumoniae = experiment: Bacteriostasis/sterilization test (plate count); format: cell-based; conditions: for Inhibition rate (%): 0.035 mM (Table 25)
Klebsiella pneumoniae = experiment: Bacteriostasis/sterilization test (plate count); format: cell-based; conditions: for Inhibition rate (%): 0.035 mM (Table 25)
Pseudomonas aeruginosa = experiment: Bacteriostasis/sterilization test (plate count); format: cell-based; conditions: for Inhibition rate (%): 0.035 mM (Table 25)
H7N9 pseudovirus = format: cell-based, Influenza pseudovirus H7N9-Fluc
H5N1 pseudovirus = format: cell-based, Influenza pseudovirus H5N1-Fluc
HIV pseudovirus = format: cell-based, HIV pseudovirus HIV18A-41
SARS-CoV-2 pseudovirus [5] = format: cell-based, SARS-CoV-2 pseudovirus B.1.526.2
SARS-CoV-2 pseudovirus [6] = system: SARS-CoV-2 pseudovirus; design: species or system SARS-CoV-2 pseudovirus B.1.526.2
[7] = system: SARS-CoV-2 pseudovirus (B.1.526.2); format: cell-based; conditions: n=3
293T cells = experiment: Cellular phagocytosis of DiD-loaded lipid vesicles (nano-drugs) by 293T cells (Example II-51, Table II-29); format: cell-based; conditions: 293T cells pretreated 4 h, DiD lipid vesicles 2 h, n=3, untreated control 226.46 ± 1.26
TNF-α [8] = experiment: Skin photoaging (UVB) in BALB/c nude mice, serum TNF-α (Example II-54, Table II-32); format: in vivo, mouse; conditions: UVB-irradiated BALB/c nude mice, 40 days
IL-1β [9] = experiment: Skin photoaging (UVB) in BALB/c nude mice, serum IL-1β (Example II-54, Table II-33); format: in vivo, mouse; conditions: serum, UVB-irradiated BALB/c nude mice, 40 days
IL-6 [10] = experiment: Skin photoaging (UVB) in BALB/c nude mice, serum IL-6 (Example II-54, Table II-34); format: in vivo, mouse; conditions: serum, UVB-irradiated BALB/c nude mice, 40 days
[11] = read-out: half inhibition concentration

SMILES	IL-1β (IL-1β [1]) [pg/mL]	IL-6 (IL-6 [2]) [pg/mL]	TNF-α (TNF-α [3]) [pg/mL]	Inhibition rate (%) (Escherichia coli)	Inhibition rate (%) (Staphylococcus aureus)	inhibition rate (Staphylococcus aureus; concentration 0.035 mM)	IC50 (Staphylococcus aureus; [11]) [µM]	Inhibition rate (%) [4] [%]	Inhibition rate (%) (Streptococcus pneumoniae)	Inhibition rate (%) (Klebsiella pneumoniae)	Inhibition rate (%) (Pseudomonas aeruginosa)	Sterilization rate (%) (H7N9 pseudovirus)	Sterilization rate (%) (H5N1 pseudovirus)	Sterilization rate (%) (HIV pseudovirus)	Sterilization rate (%) (SARS-CoV-2 pseudovirus [5])	also measured
CCC=CCC=CCC=CCCCCCCCC(=O)OC(C)C(N)C(=O)O (centres unmarked) [Thr-linolenic acid]	41	57	52													
CCCCCCCC(=O)OC(C)C(N)C(=O)O (centres unmarked)				99	99	greater than 99%	9	99	99	99	99	99	99	99	99	membrane structure of the virus (TEM) (SARS-CoV-2 pseudovirus [6]): broken
CCCCCCCC(=O)OCC1OC(O)C(O)C(O)C1O (centres unmarked)																Sterilization rate (%) (Escherichia coli; 9 mM, 2 h): >99%; IC50 (Staphylococcus aureus; 2 h, read-out: half maximal inhibition concentration): 4500 µM; inhibition rate (Staphylococcus aureus; concentration 72 mM-9 mM, 2 h): greater than 99%; Sterilization rate (%) ([4]; 9 mM, 2 h, listed as printed as Methicillin-resistant Streptococcus pneumoniae): >99%; Sterilization rate (%) (Streptococcus pneumoniae; 9 mM, 2 h): >99%; Sterilization rate (%) (Klebsiella pneumoniae; 9 mM, 2 h): >99%; Sterilization rate (%) (Pseudomonas aeruginosa; 9 mM, 2 h): >99%
CCCCCCCC(=O)OCC(N)C(=O)O (centres unmarked)				99	99	greater than 99%	9	99	99	99	99	99	99	99	99	Inhibition rate (%) ([7]; 2 nM): 30.54 ± 0.54%; Inhibition rate (%) ([7]; 5 nM): 52.06 ± 5.23%; Inhibition rate (%) ([7]; 10 nM): 53.84 ± 1.57%; Inhibition rate (%) ([7]; 50 nM): 56.33 ± 1.56%; Inhibition rate (%) ([7]; 100 nM): 63.22 ± 2.55%; Inhibition rate (%) ([7]; 1 μM): -97.39 ± 7.23%; Inhibition rate (%) ([7]; 10 μM): -44.26 ± 0.03%; Inhibition rate (%) ([7]; 50 μM): 71.36 ± 0.28%; Inhibition rate (%) ([7]; 100 μM): 73.55 ± 0.44%; Fluorescence intensity (293T cells; 2 nM): 157.30 ± 0.13; Fluorescence intensity (293T cells; 5 nM): 108.56 ± 0.13; Fluorescence intensity (293T cells; 10 nM): 104.53 ± 0.13; Fluorescence intensity (293T cells; 50 nM): 98.90 ± 0.13; Fluorescence intensity (293T cells; 100 nM): 83.29 ± 5.66; Fluorescence intensity (293T cells; 1 uM): 447.01 ± 12.33; Fluorescence intensity (293T cells; 10 uM): 326.69 ± 4.66; Fluorescence intensity (293T cells; 50 uM): 64.86 ± 5.13; Fluorescence intensity (293T cells; 100 uM): 59.90 ± 4.13
CCCCCC=CCC=CCCCCCCCC(=O)OCC(N)C(=O)O (centres unmarked) [Ser-linoleic acid]	43	39	49													TNF-α (TNF-α [8]; 30 μM smeared): 48 pg/mL; TNF-α (TNF-α [8]; 50 μM smeared): 51 pg/mL; TNF-α (TNF-α [8]; 100 μM smeared): 45 pg/mL; IL-1β (IL-1β [9]; 30 μM smeared): 53 pg/mL; IL-1β (IL-1β [9]; 50 μM smeared): 54 pg/mL; IL-1β (IL-1β [9]; 100 μM smeared): 55 pg/mL; IL-6 (IL-6 [10]; 30 μM smeared): 28 pg/mL; IL-6 (IL-6 [10]; 50 μM smeared): 27 pg/mL; IL-6 (IL-6 [10]; 100 μM smeared): 29 pg/mL
CCCCCCCC/C=C\CCCCCCCC(=O)OC(C)C(N)C(=O)O (centres unmarked)				99	99	greater than 99%	9	99	99	99	99	99	99	99	99	
